Holding throughout (type): binding
One assay has as its target T1, PI3K delta (PI3 Kd) (Homo sapiens, UniProt O00329).
T1 construct: endogenous in cells; host or cells: Jurkat, clone E6-1 (ATCC TIB-152) cell lysate
Kind of assay: kinobeads assay, PI3K delta. The method in brief: (§1)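 Competitive binding in Jurkat cell lysate (5 mg/ml total protein): test compounds at various concentrations competed with beads bearing immobilized phenylmorpholin-chromen ligand. Bead-bound kinases were eluted and quantified by antibody dot blot with infrared detection; IC50 values came from dose-response curves.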

In assay [1] the target is T2, DNA-dependent protein kinase (DNA-PK) (Homo sapiens, UniProt P78527).
T2 construct: endogenous in cells; host or cells: Jurkat, clone E6-1 (ATCC TIB-152) cell lysate
T2 sequence (P78527 whole entry): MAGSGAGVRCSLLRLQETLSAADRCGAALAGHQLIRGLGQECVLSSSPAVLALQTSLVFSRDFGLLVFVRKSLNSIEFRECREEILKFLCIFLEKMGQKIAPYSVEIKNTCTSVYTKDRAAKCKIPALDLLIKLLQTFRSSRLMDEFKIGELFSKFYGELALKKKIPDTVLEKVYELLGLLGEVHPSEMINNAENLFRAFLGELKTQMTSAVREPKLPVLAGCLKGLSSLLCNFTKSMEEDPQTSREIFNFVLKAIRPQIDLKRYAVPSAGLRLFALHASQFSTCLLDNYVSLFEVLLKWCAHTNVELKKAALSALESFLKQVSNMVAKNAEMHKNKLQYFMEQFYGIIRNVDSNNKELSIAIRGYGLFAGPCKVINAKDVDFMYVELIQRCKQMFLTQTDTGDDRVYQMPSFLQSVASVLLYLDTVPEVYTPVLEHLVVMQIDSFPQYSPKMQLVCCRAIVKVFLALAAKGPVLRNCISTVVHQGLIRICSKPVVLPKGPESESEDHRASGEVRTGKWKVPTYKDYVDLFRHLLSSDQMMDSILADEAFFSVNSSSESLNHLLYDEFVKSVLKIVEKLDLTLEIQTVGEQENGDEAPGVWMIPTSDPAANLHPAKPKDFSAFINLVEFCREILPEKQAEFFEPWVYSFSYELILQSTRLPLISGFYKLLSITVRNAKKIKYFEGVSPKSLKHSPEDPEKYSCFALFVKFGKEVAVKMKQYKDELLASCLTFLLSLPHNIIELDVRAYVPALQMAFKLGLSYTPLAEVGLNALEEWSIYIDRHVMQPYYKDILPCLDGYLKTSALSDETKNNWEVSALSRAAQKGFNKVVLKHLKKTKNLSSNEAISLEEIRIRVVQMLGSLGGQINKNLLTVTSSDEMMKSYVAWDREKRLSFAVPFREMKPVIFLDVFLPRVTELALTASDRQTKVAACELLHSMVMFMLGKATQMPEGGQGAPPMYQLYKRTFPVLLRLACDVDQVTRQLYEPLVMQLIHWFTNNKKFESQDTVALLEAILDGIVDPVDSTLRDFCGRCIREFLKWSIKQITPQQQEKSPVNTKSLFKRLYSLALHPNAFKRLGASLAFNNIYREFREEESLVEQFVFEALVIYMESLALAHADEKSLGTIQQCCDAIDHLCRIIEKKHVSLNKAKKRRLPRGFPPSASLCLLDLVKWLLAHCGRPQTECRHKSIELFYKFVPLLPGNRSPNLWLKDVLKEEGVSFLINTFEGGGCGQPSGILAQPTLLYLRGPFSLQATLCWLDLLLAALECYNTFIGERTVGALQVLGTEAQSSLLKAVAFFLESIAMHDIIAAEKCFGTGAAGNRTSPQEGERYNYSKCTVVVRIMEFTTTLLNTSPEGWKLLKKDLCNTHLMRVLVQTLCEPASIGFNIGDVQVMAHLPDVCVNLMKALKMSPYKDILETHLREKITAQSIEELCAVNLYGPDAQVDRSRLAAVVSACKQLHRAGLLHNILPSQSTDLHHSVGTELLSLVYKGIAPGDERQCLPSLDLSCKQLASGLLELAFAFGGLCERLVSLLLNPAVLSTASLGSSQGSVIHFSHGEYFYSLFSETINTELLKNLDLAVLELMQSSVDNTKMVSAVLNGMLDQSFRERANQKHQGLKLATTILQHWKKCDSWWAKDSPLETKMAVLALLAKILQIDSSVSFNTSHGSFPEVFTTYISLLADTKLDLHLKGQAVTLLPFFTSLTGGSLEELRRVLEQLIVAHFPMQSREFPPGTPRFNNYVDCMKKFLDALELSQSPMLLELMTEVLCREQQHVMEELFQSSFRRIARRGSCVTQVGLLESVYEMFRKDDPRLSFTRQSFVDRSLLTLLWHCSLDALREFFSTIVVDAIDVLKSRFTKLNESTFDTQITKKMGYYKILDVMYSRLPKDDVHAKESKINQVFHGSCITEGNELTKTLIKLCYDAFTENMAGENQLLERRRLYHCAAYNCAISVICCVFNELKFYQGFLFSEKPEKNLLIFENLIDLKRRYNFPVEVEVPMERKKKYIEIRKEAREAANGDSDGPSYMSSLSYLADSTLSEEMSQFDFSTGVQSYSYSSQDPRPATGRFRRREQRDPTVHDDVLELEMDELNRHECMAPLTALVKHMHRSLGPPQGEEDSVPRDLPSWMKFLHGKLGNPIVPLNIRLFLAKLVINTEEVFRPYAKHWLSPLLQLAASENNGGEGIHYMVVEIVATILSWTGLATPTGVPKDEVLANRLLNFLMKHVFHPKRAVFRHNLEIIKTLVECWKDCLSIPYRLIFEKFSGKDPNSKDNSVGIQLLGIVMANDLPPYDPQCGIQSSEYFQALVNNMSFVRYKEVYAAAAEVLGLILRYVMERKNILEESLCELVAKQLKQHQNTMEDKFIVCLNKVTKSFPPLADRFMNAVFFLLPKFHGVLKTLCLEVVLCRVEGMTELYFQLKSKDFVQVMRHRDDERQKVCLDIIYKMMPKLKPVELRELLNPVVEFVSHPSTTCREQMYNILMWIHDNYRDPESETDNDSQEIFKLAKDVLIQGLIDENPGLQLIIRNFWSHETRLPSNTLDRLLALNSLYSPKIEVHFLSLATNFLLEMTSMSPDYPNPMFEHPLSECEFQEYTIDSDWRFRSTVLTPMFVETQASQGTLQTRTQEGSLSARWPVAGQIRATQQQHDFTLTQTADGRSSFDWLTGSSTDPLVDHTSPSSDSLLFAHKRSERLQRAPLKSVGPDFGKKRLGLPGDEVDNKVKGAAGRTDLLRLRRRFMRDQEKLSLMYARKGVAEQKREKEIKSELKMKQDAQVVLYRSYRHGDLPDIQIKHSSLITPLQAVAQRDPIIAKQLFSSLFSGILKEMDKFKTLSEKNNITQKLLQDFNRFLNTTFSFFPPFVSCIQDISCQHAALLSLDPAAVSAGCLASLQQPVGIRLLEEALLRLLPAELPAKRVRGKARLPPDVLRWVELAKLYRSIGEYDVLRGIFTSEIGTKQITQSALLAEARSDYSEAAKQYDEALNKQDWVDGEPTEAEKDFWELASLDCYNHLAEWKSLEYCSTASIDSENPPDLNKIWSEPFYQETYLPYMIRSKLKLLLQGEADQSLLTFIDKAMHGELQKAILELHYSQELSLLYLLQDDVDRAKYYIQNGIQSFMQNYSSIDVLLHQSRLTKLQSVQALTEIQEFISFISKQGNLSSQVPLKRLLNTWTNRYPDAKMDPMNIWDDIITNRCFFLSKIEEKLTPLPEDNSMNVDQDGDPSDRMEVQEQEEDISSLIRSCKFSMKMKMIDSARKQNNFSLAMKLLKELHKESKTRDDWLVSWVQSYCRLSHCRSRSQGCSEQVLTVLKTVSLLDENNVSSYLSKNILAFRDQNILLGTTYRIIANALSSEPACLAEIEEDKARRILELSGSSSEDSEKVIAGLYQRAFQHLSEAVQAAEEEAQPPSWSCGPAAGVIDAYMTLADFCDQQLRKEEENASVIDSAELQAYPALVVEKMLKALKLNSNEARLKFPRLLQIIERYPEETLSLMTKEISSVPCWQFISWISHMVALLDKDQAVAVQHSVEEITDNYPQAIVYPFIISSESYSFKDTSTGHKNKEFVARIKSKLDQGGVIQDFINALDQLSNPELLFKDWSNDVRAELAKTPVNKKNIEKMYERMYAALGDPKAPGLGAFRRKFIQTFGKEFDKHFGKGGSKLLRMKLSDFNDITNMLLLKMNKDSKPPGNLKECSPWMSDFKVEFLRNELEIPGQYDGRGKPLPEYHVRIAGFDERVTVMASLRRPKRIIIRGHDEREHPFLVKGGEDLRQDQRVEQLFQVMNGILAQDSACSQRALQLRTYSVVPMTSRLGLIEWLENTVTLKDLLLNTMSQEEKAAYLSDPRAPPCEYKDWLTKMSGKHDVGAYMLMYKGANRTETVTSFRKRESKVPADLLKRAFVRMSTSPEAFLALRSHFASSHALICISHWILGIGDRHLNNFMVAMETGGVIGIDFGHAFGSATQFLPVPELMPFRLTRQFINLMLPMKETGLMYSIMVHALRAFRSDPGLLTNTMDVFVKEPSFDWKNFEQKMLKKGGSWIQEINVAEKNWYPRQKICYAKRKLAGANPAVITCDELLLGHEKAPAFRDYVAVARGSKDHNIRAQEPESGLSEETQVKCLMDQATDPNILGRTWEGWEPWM
Kind of assay: kinobeads assay, DNA-PK. In a few lines: as §1

The target of a further assay is T3, PI3 Kbeta (PI3 Kb) (Homo sapiens, UniProt P42338).
T3 construct: endogenous in cells; host or cells: cell lysate
Briefly: kinobeads assay, PI3Kbeta. The method in brief: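 IC50s are fitted to per-kinase dose-response curves. Kinases retained on phenylmorpholin-chromen affinity beads are read by multiplexed immunodetection after elution. Compound, added at a range of concentrations straight into cell lysate, competes for this bead capture.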

Where [2] appears, read: kinobeads assay, Table 4, read-out: Inhibition values (IC50) PI3Kd.
Setting [3] is: kinobeads assay, Table 6, read-out: Inhibition values (IC50) PI3Kd.
[4] abbreviates: kinobeads assay, Table 4, read-out: Inhibition values (IC50) DNA-PK.
The mark [5] stands for this setting: kinobeads assay, Table 6, read-out: Inhibition values (IC50) DNAPK.
Where [6] appears, read: kinobeads assay, Table 6, read-out: Inhibition values (IC50) PI3Kb.
[7] abbreviates: Further Kinobeads Data, read-out: PI3Kd.
Setting [8] is: Further Kinobeads Data, read-out: DNAPK.
Setting [9] is: Further Kinobeads Data, read-out: PI3Kb.

Where two headings read alike, the source gives them in different places.

Consider `CC(C)CN1CCc2c(nc(-c3ccc(NC(=O)NC4CC4)cc3)nc2N2CCOC[C@@H]2C)C1` [Example 42, (S)-1-cyclopropyl-3-(4-(7-isobutyl-4-(3-methylmorpholino)-5,6,7,8-tetrahydropyrido[3,4-d]pyrimidin-2-yl)phenyl)urea], for which the IC50 (on PI3K delta (PI3 Kd) (setting [2]); on PI3K delta (PI3 Kd) (setting [3]); in assay [1] (setting [4]); in assay [1] (setting [5]); at PI3 Kbeta (PI3 Kb) (setting [6])) was > 10 µM each time.

As to `CC(C)N1CCc2c(nc(-c3ccc(NC(=O)NC4CC4)cc3)nc2N2CCOC[C@@H]2C)C1` [Example 43, (S)-1-cyclopropyl-3-(4-(7-isopropyl-4-(3-methylmorpholino)-5,6,7,8-tetrahydropyrido[3,4-d]pyrimidin-2-yl)phenyl)urea], the IC50 is > 10 µM at PI3K delta (PI3 Kd) (setting [2]); > 10 µM on PI3K delta (PI3 Kd) (setting [3]); > 10 µM in assay [1] (setting [4]); > 10 µM in assay [1] (setting [5]); 1 to 10 µM on PI3 Kbeta (PI3 Kb) (setting [6]).

Take `C[C@H]1COCCN1c1nc(-c2ccc(NC(=O)NC3CC3)cc2)nc2c1CN(C(=O)C(C)(C)C)C2` [Example 45, (S)-1-cyclopropyl-3-(4-(4-(3-methylmorpholino)-6-pivaloyl-6,7-dihydro-5H-pyrrolo[3,4-d]pyrimidin-2-yl)phenyl)urea]: the IC50 (at PI3K delta (PI3 Kd) (setting [2]); on PI3K delta (PI3 Kd) (setting [3]); in assay [1] (setting [4]); in assay [1] (setting [5]); at PI3 Kbeta (PI3 Kb) (setting [6])) was > 10 µM each time.

`C[C@H]1COCCN1c1nc(-c2ccc(NC(=O)Nc3ccc(F)cc3)cc2)nc2c1CN(C)C2` [Example 52, (S)-1-(4-fluorophenyl)-3-(4-(6-methyl-4-(3-methylmorpholino)-6,7-dihydro-5H-pyrrolo[3,4-d]pyrimidin-2-yl)phenyl)urea]: the IC50 (at PI3K delta (PI3 Kd) (setting [2]); at PI3K delta (PI3 Kd) (setting [3]); in assay [1] (setting [4]); in assay [1] (setting [5]); at PI3 Kbeta (PI3 Kb) (setting [6])) was > 10 µM throughout.

In the case of `CCNC(=O)Nc1ccc(-c2nc3c(c(N4CCOC[C@@H]4C)n2)CCN(C(=O)C2CC2)C3)cc1` [Example 56, (S)-1-(4-(7-(cyclopropanecarbonyl)-4-(3-methylmorpholino)-5,6,7,8-tetrahydropyrido[3,4-d]pyrimidin-2-yl)phenyl)-3-ethylurea], the IC50 (at PI3K delta (PI3 Kd) (setting [2]); at PI3K delta (PI3 Kd) (setting [3]); in assay [1] (setting [4]); in assay [1] (setting [5]); at PI3 Kbeta (PI3 Kb) (setting [6])) was > 10 µM each time.

As to `CCNC(=O)Nc1ccc(-c2nc3c(c(N4CCOC[C@@H]4C)n2)CCN(C(=O)C(C)C)C3)cc1` [Example 57, (S)-1-ethyl-3-(4-(7-isobutyryl-4-(3-methylmorpholino)-5,6,7,8-tetrahydropyrido[3,4-d]pyrimidin-2-yl)phenyl)urea], the IC50 (at PI3K delta (PI3 Kd) (setting [2]); at PI3K delta (PI3 Kd) (setting [3]); in assay [1] (setting [4]); in assay [1] (setting [5]); on PI3 Kbeta (PI3 Kb) (setting [6])) was > 10 µM throughout.

Regarding `CCNC(=O)Nc1cc(F)c(-c2nc3c(c(N4CCOC[C@@H]4C)n2)CN(C(=O)OCC)C3)cc1F` [Example 141, (S)-ethyl 2-(4-(3-ethylureido)-2,5-difluorophenyl)-4-(3-methylmorpholino)-5H-pyrrolo[3,4-d]pyrimidine-6(7H)-carboxylate], the IC50 (at PI3K delta (PI3 Kd) (setting [7]); in assay [1] (setting [8]); on PI3 Kbeta (PI3 Kb) (setting [9])) was > 10 µM each time.

`COC(=O)N1Cc2nc(-c3ccc(NC(=O)NC4CC4)cc3F)nc(N3CCOC[C@@H]3C)c2C1` [Example 146, (S)-methyl 2-(4-(3-cyclopropylureido)-2-fluorophenyl)-4-(3-methylmorpholino)-5H-pyrrolo[3,4-d]pyrimidine-6(7H)-carboxylate]: the IC50 (at PI3K delta (PI3 Kd) (setting [7]); in assay [1] (setting [8]); on PI3 Kbeta (PI3 Kb) (setting [9])) was > 10 µM throughout.

`C[C@H]1COCCN1c1nc(-c2ccc(NC(=O)NC3CC3)cc2F)nc2c1CN(C)C2` [Example 147, (S)-1-cyclopropyl-3-(3-fluoro-4-(6-methyl-4-(3-methylmorpholino)-6,7-dihydro-5H-pyrrolo[3,4-d]pyrimidin-2-yl)phenyl)urea]: the IC50 (at PI3K delta (PI3 Kd) (setting [7]); in assay [1] (setting [8]); at PI3 Kbeta (PI3 Kb) (setting [9])) was > 10 µM each time.

For the compound `CCNC(=O)Nc1ccc(-c2nc3c(c(N4CCOCC4)n2)CN(C(=O)OCC)C3)c(F)c1` [Example 151, Ethyl 2-(4-(3-ethylureido)-2-fluorophenyl)-4-morpholino-5H-pyrrolo[3,4-d]pyrimidine-6(7H)-carboxylate], the IC50 (at PI3K delta (PI3 Kd) (setting [7]); in assay [1] (setting [8]); on PI3 Kbeta (PI3 Kb) (setting [9])) was > 10 µM in each case.

On to `CCNC(=O)Nc1ccc(-c2nc3c(c(N4CCOC[C@@H]4C)n2)CN(C(=O)OC)C3)c(F)c1` [Example 152, (S)-methyl 2-(4-(3-ethylureido)-2-fluorophenyl)-4-(3-methylmorpholino)-5H-pyrrolo[3,4-d]pyrimidine-6-(7H)-carboxylate], for which the IC50 is 1 to 10 µM at PI3K delta (PI3 Kd) (setting [7]), > 10 µM in assay [1] (setting [8]) and > 10 µM on PI3 Kbeta (PI3 Kb) (setting [9]).

On to `CCNC(=O)Nc1ccc(-c2nc3c(c(N4CCOC[C@@H]4C)n2)CN(C(=O)OC(C)(C)C)C3)c(F)c1` [Example 153, (S)-tert-butyl 2-(4-(3-ethylureido)-2-fluorophenyl)-4-(3-methylmorpholino)-5H-pyrrolo[3,4-d]pyrimidine-6-(7H)-carboxylate], for which the IC50 (at PI3K delta (PI3 Kd) (setting [7]); in assay [1] (setting [8]); at PI3 Kbeta (PI3 Kb) (setting [9])) was > 10 µM in each case.

Consider `CCNC(=O)Nc1ccc(-c2nc3c(c(N4CCOCC4)n2)CN(C)C3)c(F)c1` [Example 154, 1-ethyl-3-(3-fluoro-4-(6-methyl-4-morpholino-6,7-dihydro-5H-pyrrolo[3,4-d]pyrimidin-2-yl)phenyl)urea], for which the IC50 (at PI3K delta (PI3 Kd) (setting [7]); in assay [1] (setting [8]); at PI3 Kbeta (PI3 Kb) (setting [9])) was > 10 µM throughout.

Regarding `CC(=O)N1Cc2nc(-c3ccc(NC(=O)NC4CC4)cc3F)nc(N3CCOC[C@@H]3C)c2C1` [Example 155, (S)-1-(4-(6-acetyl-4-(3-methylmorpholino)-6,7-dihydro-5H-pyrrolo[3,4-d]pyrimidin-2-yl)-3-fluorophenyl)-3-cyclopropylurea], the IC50 (on PI3K delta (PI3 Kd) (setting [7]); in assay [1] (setting [8]); at PI3 Kbeta (PI3 Kb) (setting [9])) was > 10 µM throughout.

With `CCOC(=O)N1Cc2nc(-c3ccc(NC(=O)NC4CC4)cc3F)nc(N3CCOCC3)c2C1` [Example 156, Ethyl 2-(4-(3-cyclopropylureido)-2-fluorophenyl)-4-morpholino-5H-pyrrolo[3,4-d]pyrimidine-6(7H)-carboxylate], the IC50 (at PI3K delta (PI3 Kd) (setting [7]); in assay [1] (setting [8]); on PI3 Kbeta (PI3 Kb) (setting [9])) was > 10 µM each time.

With `CN1Cc2nc(-c3ccc(NC(=O)NC4CC4)cc3F)nc(N3CCOCC3)c2C1` [Example 159, 1-(Cyclopropyl)-3-(3-fluoro-4-(6-methyl-4-morpholino-6,7-dihydro-5H-pyrrolo[3,4-d]pyrimidin-2-yl)phenyl)urea], the IC50 (on PI3K delta (PI3 Kd) (setting [7]); in assay [1] (setting [8]); at PI3 Kbeta (PI3 Kb) (setting [9])) was > 10 µM throughout.

As for `CCNC(=O)Nc1ccc(-c2nc3c(c(N4CCOC[C@@H]4C)n2)CN(C)C3)c(F)c1` [Example 160, (S)-1-ethyl-3-(3-fluoro-4-(6-methyl-4-(3-methylmorpholino)-6,7-dihydro-5H-pyrrolo[3,4-d]pyrimidin-2-yl)phenyl)urea], the IC50 (on PI3K delta (PI3 Kd) (setting [7]); in assay [1] (setting [8]); on PI3 Kbeta (PI3 Kb) (setting [9])) was > 10 µM throughout.

For the compound `CCNC(=O)Nc1ccc(-c2nc3c(c(N4CCOCC4)n2)CN(C(=O)OC)C3)c(F)c1` [Example 162, methyl 2-(4-(3-ethylureido)-2-fluorophenyl)-4-morpholino-5H-pyrrolo[3,4-d]pyrimidine-6(7H)-carboxylate], the IC50 at PI3K delta (PI3 Kd) (setting [7]) was 1 to 10 µM; in assay [1] (setting [8]) it was > 10 µM; on PI3 Kbeta (PI3 Kb) (setting [9]), 1 to 10 µM.

With `C[C@H]1COCCN1c1nc(-c2ccc(NC(=O)NC3CC3)cc2F)nc2c1CCNC2` [Example 163, (S)-1-cyclopropyl-3-(3-fluoro-4-(4-(3-methylmorpholino)-5,6,7,8-tetrahydropyrido[3,4-d]pyrimidin-2-yl)phenyl)urea], the IC50 (at PI3K delta (PI3 Kd) (setting [7]); in assay [1] (setting [8]); on PI3 Kbeta (PI3 Kb) (setting [9])) was > 10 µM throughout.

With `CCNC(=O)Nc1ccc(-c2nc3c(c(N4CCOC[C@@H]4C)n2)CCNC3)c(F)c1` [Example 164, (S)-1-ethyl-3-(3-fluoro-4-(4-(3-methylmorpholino)-5,6,7,8-tetrahydropyrido[3,4-d]pyrimidin-2-yl)phenyl)urea], the IC50 (on PI3K delta (PI3 Kd) (setting [7]); in assay [1] (setting [8]); at PI3 Kbeta (PI3 Kb) (setting [9])) was > 10 µM in each case.

Turning to `C[C@H]1COCCN1c1nc(-c2ccc(NC(=O)NC3CC3)cc2F)nc2c1CCN(C(=O)N(C)C)C2` [Example 165, (S)-2-(4-(3-cyclopropylureido)-2-fluorophenyl)-N,N-dimethyl-4-(3-methylmorpholino)-5,6-dihydropyrido[3,4-d]pyrimidine-7(8H)-carboxamide], the IC50 (on PI3K delta (PI3 Kd) (setting [7]); in assay [1] (setting [8]); on PI3 Kbeta (PI3 Kb) (setting [9])) was > 10 µM throughout.

For the compound `CCOC(=O)N1Cc2nc(-c3ccc(NC(=O)NCCO)cc3F)nc(N3CCOC[C@@H]3C)c2C1` [Example 167, (S)-Ethyl 2-(2-fluoro-4-(3-(2-hydroxyethyl)ureido)phenyl)-4-(3-methylmorpholino)-5H-pyrrolo[3,4-d]pyrimidine-6(7H)-carboxylate], the IC50 is 1 to 10 µM at PI3K delta (PI3 Kd) (setting [7]), > 10 µM in assay [1] (setting [8]) and 1 to 10 µM on PI3 Kbeta (PI3 Kb) (setting [9]).

The values are drawn from patent US8785457B2 (Cellzome Limited, priority 2009, dated 2014).
